Measurements reported in PubChem BioAssay (NCI).
“And” between values parts separate entries of the source, which are not always exact repeats. Equal entries are not always repeated.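 Tested at 5 concentrations; 48 h exposure; 96-well plates; endpoints linearly interpolated, else capped at highest concentration. GI50: concentration for 50% inhibition of growth. TGI: concentration producing complete growth inhibition.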

Experiments:
Test in all cases: DTP human tumour cell line panel, 48 h
MCF7 breast = tested on: MCF7 breast
PC-3 prostate = tested on: PC-3 prostate
LXFL 529 NSCLC = tested on: LXFL 529 NSCLC
MDA-N = tested on: MDA-N
RXF-631 renal = tested on: RXF-631 renal

In the case of `Cc1cc2cc3ccc(N(C)C)cc3nc2cc1N`, the GI50 (MCF7 breast) is reported as 0.35 µM, the TGI (MCF7 breast) is reported as 11.2 µM and the GI50 (PC-3 prostate) is reported as 0.992 µM. It also gave a TGI (PC-3 prostate) of 4.91 µM.

`COc1cccc(/C=N/NC(=S)NC2CC3CCC2C3)c1O` (configuration not stated) was tested, and the GI50 (MCF7 breast) was 4.74 µM, the TGI (MCF7 breast) was 27.1 µM and the GI50 (PC-3 prostate) was 8.5 µM. The TGI (PC-3 prostate) was 27 µM.

In the case of `Oc1ccc(-c2nc3ccc4[nH]ncc4c3c3c2CCCC3)c(F)c1`, the GI50 (MCF7 breast) is reported as 4.91 µM, the TGI (MCF7 breast) is reported as 20.7 µM and the GI50 (PC-3 prostate) is reported as 2.75 µM. The TGI (PC-3 prostate) was 14.8 µM.

Compound `COc1cc(-c2cc(-c3ccc(Nc4ccnc5cc(Cl)ccc45)cc3)nc(N3CCOCC3)n2)cc(OC)c1OC` has a GI50 (MCF7 breast) of 0.755 µM, a TGI (MCF7 breast) of 3.26 µM and a GI50 (PC-3 prostate) of 1.78 µM. For the same compound, the TGI (PC-3 prostate) was 3.69 µM.

With `O=C1C2=C(c3ccccc31)C(c1ccccc1)N1C(=O)CSC1=N2` (configuration not stated) the TGI (LXFL 529 NSCLC) was greater than 100 µM, the TGI (MCF7 breast) was greater than 100 µM and the TGI (MDA-N) was 47.3 µM. For the same compound, the TGI (PC-3 prostate) was greater than 100 µM and the TGI (RXF-631 renal) was greater than 100 µM.

Compound `Cc1ccc(NC(=O)C2C(=O)N(c3ccc(C)c(C)c3)C(=O)/C2=N\NC(N)=O)cc1C` (configuration not stated) has a TGI (LXFL 529 NSCLC) greater than 100 µM.

Compound `CC1=CC(=O)C(C(C)C)=CC1=Nc1cc(Br)c(O)c(Br)c1` has a GI50 (MCF7 breast) of 4.27 µM and a TGI (MCF7 breast) of 17.7 µM.

Work on `N#CC1CCCCOCCOCCOCCOCCOCCCCCC1=O` (configuration not stated) yielded a TGI (LXFL 529 NSCLC) greater than 100 µM and a TGI (RXF-631 renal) greater than 100 µM.

With `CC1=C(/C=C/C(C)=C/C=C/C(C)=C/C=N/NC(=S)NC(=S)N/N=C/C=C(C)/C=C/C=C(C)/C=C/C2=C(C)CCCC2(C)C)C(C)(C)CCC1` the GI50 (MCF7 breast) was 2.38 µM and 1.83 µM, the TGI (MCF7 breast) was 12.5 µM and 7.5 µM and the GI50 (PC-3 prostate) was 3.52 µM and 1.75 µM. The TGI (PC-3 prostate) was 12.7 µM and 7.23 µM.

In the case of `CCCC(C)n1c(C)nc2c1C(=O)c1ccccc1C2=O` (configuration not stated), the TGI (LXFL 529 NSCLC) is reported as greater than 100 µM.

For `O=[N+]([O-])c1ccc(-c2noc(-c3ccc(Cl)cc3)c2C2=NCCN2)cc1`, the TGI (LXFL 529 NSCLC) was greater than 100 µM.

With `N#Cc1c(Br)n(C2OC(CO)C(O)C2O)c2ncnc(N)c12` (configuration not stated) the GI50 (MCF7 breast) was 0.631 µM, the TGI (MCF7 breast) was 4.01 µM and the GI50 (PC-3 prostate) was 0.811 µM. The TGI (PC-3 prostate) was 18.6 µM.

For `Clc1ccc(-c2csc(Nc3cccc(-c4csc(-c5ccccc5)n4)c3)n2)cc1`, the GI50 (MCF7 breast) was 10.3 µM, the TGI (MCF7 breast) was greater than 50 µM and the GI50 (PC-3 prostate) was 5.71 µM. The TGI (PC-3 prostate) was 17 µM.

Compound `COc1ccc(S(=O)(=O)NC2=NCCN2C(=S)SN2CCn3c2nsc3=S)cc1` has a GI50 (MCF7 breast) of 12.4 µM, a TGI (MCF7 breast) of 27.2 µM and a GI50 (PC-3 prostate) of 17.5 µM. It also gave a TGI (PC-3 prostate) of 40.1 µM.

`CCC/C=C1\CCC(CN(C)C)C1=O` (configuration not stated) showed a TGI (LXFL 529 NSCLC) of 3.33 µM.

Compound `Cc1c(CCO)c(=O)n2c([nH]c3ccccc32)c1C#N` has a TGI (LXFL 529 NSCLC) greater than 100 µM.

Work on `Cn1c(=O)c(NC(=O)C(Cl)(Cl)Cl)nc2ccccc21` yielded a TGI (LXFL 529 NSCLC) greater than 100 µM and a TGI (RXF-631 renal) greater than 100 µM.

`Oc1ccc(O)c(-c2cc(-c3ccc(Cl)cc3)nn2-c2ccccc2)c1` showed a GI50 (MCF7 breast) of 3.88 µM, a TGI (MCF7 breast) greater than 100 µM and a GI50 (PC-3 prostate) of 3.19 µM. It also gave a TGI (PC-3 prostate) of 13.1 µM.

In the case of `NC(=O)c1ccccc1NC(=O)C(=O)Cc1nc2ccccc2[nH]c1=O`, the TGI (LXFL 529 NSCLC) is reported as greater than 100 µM and the TGI (RXF-631 renal) is reported as greater than 100 µM.

For `O=C(CSc1ncn[nH]1)C[P+](c1ccccc1)(c1ccccc1)c1ccccc1`, the TGI (LXFL 529 NSCLC) was greater than 100 µM.

For `CN(C)c1nnnn1-c1c(N)n(C)c(=O)n(C)c1=O`, the TGI (LXFL 529 NSCLC) was greater than 100 µM and the TGI (RXF-631 renal) was greater than 100 µM.

For `O=S(=O)(O)c1ccc(N=Nc2nc(C(F)(F)F)c(C(F)(F)F)[nH]2)cc1`, the TGI (LXFL 529 NSCLC) was greater than 100 µM and the TGI (RXF-631 renal) was greater than 100 µM.

With `Cc1cc(Nc2nc(-c3cccnc3)nc3ccccc23)n[nH]1` the GI50 (MCF7 breast) was 1.28 µM, the TGI (MCF7 breast) was greater than 100 µM and the GI50 (PC-3 prostate) was 1.85 µM. It also gave a TGI (PC-3 prostate) greater than 100 µM.

`CC(=O)OC1=CC2=CC[C@H]3[C@@H]4CCC(=O)[C@@]4(C)CC(=O)[C@]3(S)[C@@]2(C)CC1` was tested, and the TGI (MCF7 breast) was greater than 100 µM, the TGI (MDA-N) was greater than 100 µM and the TGI (PC-3 prostate) was greater than 100 µM.

`NC1=NC(c2ccc(Cl)cc2)N(c2ccc(S(N)(=O)=O)cc2)C(N)=N1` (configuration not stated) was tested, and the TGI (MCF7 breast) was greater than 100 µM, the TGI (MDA-N) was greater than 100 µM and the TGI (PC-3 prostate) was greater than 100 µM.

`S=c1[nH]nc(Cc2ccccc2)c(=S)[nH]1` showed a TGI (LXFL 529 NSCLC) greater than 100 µM, a TGI (MCF7 breast) greater than 100 µM and a TGI (MDA-N) greater than 100 µM. The TGI (PC-3 prostate) was 88.2 µM and the TGI (RXF-631 renal) was greater than 100 µM.

`CN(C)c1ccc(/C=C/c2ccc(/C=C/c3ccc(N(C)C)cc3)cc2)cc1` gave a TGI (LXFL 529 NSCLC) greater than 100 µM and a TGI (RXF-631 renal) greater than 100 µM.

Compound `Cc1cn(C2C=CC(CO)O2)c(=O)[nH]c1=O` (configuration not stated) has a TGI (MCF7 breast) greater than 1000 µM, a TGI (MDA-N) greater than 1000 µM and a TGI (PC-3 prostate) greater than 1000 µM.

For `CC(C)N1CCN(Cc2ccc3c(NNC(=O)c4ccccc4)nc4cc(F)ccc4n23)CC1`, the GI50 (MCF7 breast) was 0.341 µM, the TGI (MCF7 breast) was 1.48 µM and the GI50 (PC-3 prostate) was 0.402 µM. It also gave a TGI (PC-3 prostate) of 12.7 µM.

For `CCN(Cc1ccc(F)cc1)c1ccc(CO)c(C)c1`, the GI50 (MCF7 breast) was 15.1 µM, the TGI (MCF7 breast) was greater than 52.2 µM and the GI50 (PC-3 prostate) was 11.6 µM. For the same compound, the TGI (PC-3 prostate) was 32.3 µM.

With `Nc1nc(N)c(C=Nc2ccc(Br)cc2)c(Nc2ccc(Br)cc2)n1` the GI50 (MCF7 breast) was 2.57 µM, the TGI (MCF7 breast) was 15.1 µM and the GI50 (PC-3 prostate) was 8.34 µM. For the same compound, the TGI (PC-3 prostate) was 26.4 µM.

`Nc1cc(O)ccc1N=Nc1ccc(-c2nc3ccccc3[nH]2)cc1` gave a GI50 (PC-3 prostate) of 20.4 µM and a TGI (PC-3 prostate) greater than 100 µM.

With `C[N+](C)(C)CC1CCC/C1=N/O` (configuration not stated) the TGI (LXFL 529 NSCLC) was greater than 100 µM.

Compound `Cc1cccc(C(C)C)c1N1C(=O)C(=O)C(c2nc3ccccc3o2)C(=O)C1=O` has a TGI (LXFL 529 NSCLC) greater than 100 µM and a TGI (RXF-631 renal) greater than 100 µM.

In the case of `COc1ccccc1C1=C(Nc2ccccc2)C(=O)NC1=O`, the GI50 (MCF7 breast) is reported as greater than 25 µM, the TGI (MCF7 breast) is reported as greater than 25 µM and the GI50 (PC-3 prostate) is reported as greater than 25 µM. It also gave a TGI (PC-3 prostate) greater than 25 µM.

Work on `Cc1cc(-c2ccccc2)nc(Nc2nc3ccccc3o2)n1` yielded a TGI (LXFL 529 NSCLC) greater than 100 µM.

`Cc1ccc(/C=C2\CN(C(=O)C(Cl)Cl)C/C(=C\c3ccc(C)cc3)C2=O)cc1` was tested, and the GI50 (MCF7 breast) was 0.0546 µM, the TGI (MCF7 breast) was 0.836 µM and the GI50 (PC-3 prostate) was 0.209 µM. For the same compound, the TGI (PC-3 prostate) was 0.672 µM.

`Cc1nc2c(o1)C(=Nc1ccccc1)c1ccccc1C2=O` gave a TGI (LXFL 529 NSCLC) of 24.1 µM.

Work on `COC(=O)C1C=CCON2CCc3c(n(C)c4ccccc34)C12` (configuration not stated) yielded a TGI (LXFL 529 NSCLC) greater than 100 µM and a TGI (RXF-631 renal) greater than 100 µM.

In the case of `COC(=O)CCC1CCc2c(OC)ccc(OC)c2C1=O` (configuration not stated), the TGI (LXFL 529 NSCLC) is reported as greater than 100 µM.

`Clc1ccc(-c2nnc(-c3cccc4ccccc34)o2)cc1Cl` showed a TGI (MCF7 breast) greater than 100 µM, a TGI (MDA-N) greater than 100 µM and a TGI (PC-3 prostate) greater than 100 µM.
